Measured values reported in ChEMBL document CHEMBL4371003, “Discovery of Novel Dual Mechanism of Action Src Signaling and Tubulin Polymerization Inhibitors (KX2-391 and KX2-361)” (J Med Chem, 2018).
Each block holds one molecule with its values, some of them ahead of it.

How the values were obtained:
HT-29 [1] = test: Antiproliferative activity against human HT-29 cells in presence of 1.5% FCS by BrdU incorporation assay; format: functional, cell-based
[2] = Oral bioavailability in mouse; format: ADME, organism-based; conditions: in vivo
HT-29 [3] = test: Antiproliferative activity against human HT-29 cells; format: functional
[4] = Antiproliferative activity against human PC3MLN4 cells; format: functional
[5] = Ratio of AUC in brain to plasma of mouse at 20 mg/kg, po; format: ADME, organism-based; conditions: brain and plasma, read-out: Ratio AUC
[6] = Oral bioavailability in mouse at 20 mg/kg; format: ADME, organism-based; conditions: in vivo
[7] = biological target: Proto-oncogene tyrosine-protein kinase Src (Mus musculus, UniProt P05480); test: Inhibition of Src autophosphorylation in mouse GL261 cells; format: cell-based
Proto-oncogene tyrosine-protein kinase Src (Mus musculus, UniProt P05480), sequence (P05480 2-535 limits assumed): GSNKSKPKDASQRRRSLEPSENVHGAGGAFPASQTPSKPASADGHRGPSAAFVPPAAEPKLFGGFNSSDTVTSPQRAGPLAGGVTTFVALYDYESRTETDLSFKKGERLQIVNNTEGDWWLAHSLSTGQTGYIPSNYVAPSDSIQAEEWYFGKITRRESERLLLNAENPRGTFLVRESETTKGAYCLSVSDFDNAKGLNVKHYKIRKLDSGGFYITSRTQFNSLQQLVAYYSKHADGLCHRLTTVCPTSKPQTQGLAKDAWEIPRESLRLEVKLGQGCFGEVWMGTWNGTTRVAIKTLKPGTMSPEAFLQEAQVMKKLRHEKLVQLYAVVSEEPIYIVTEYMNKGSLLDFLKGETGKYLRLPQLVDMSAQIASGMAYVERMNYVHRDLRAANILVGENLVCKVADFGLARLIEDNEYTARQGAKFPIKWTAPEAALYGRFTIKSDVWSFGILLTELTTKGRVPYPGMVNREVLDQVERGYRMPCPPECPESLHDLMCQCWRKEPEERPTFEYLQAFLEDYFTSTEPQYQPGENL

[8] = biological target: T1, Proto-oncogene tyrosine-protein kinase Src (Homo sapiens, UniProt P12931); test: Inhibition of Src (unknown origin)
T1 sequence (P12931 2-536 limits assumed): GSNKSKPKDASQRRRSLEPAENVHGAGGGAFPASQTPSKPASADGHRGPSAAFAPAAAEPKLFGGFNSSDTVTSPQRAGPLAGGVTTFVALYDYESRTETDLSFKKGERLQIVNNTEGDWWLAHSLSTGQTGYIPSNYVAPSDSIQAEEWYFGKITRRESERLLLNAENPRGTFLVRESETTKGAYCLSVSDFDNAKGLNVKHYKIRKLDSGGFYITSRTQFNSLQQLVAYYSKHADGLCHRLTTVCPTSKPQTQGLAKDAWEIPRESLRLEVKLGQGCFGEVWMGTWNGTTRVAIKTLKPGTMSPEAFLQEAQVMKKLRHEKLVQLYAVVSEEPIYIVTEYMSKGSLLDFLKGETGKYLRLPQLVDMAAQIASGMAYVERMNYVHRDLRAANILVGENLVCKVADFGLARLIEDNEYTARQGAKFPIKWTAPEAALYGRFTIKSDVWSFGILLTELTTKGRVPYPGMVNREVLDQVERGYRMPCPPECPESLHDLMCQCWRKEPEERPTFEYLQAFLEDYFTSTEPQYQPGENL

Daoy = test: Antiproliferative activity against human DaOY cells; format: functional
SK-N-MC = test: Antiproliferative activity against human SK-N-MC cells; format: functional
SW1088 = test: Antiproliferative activity against human SW1088 cells; format: functional
LN-18 = test: Antiproliferative activity against human LN18 cells; format: functional
SK-N-FI = test: Antiproliferative activity against human SK-N-FI cells; format: functional
U-87 MG = test: Antiproliferative activity against human U87 cells; format: functional, U-87MG ATCC
T98G = test: Antiproliferative activity against human T98G cells; format: functional
U-118-MG = test: Antiproliferative activity against human U118MG cells; format: functional
U138-MG = test: Antiproliferative activity against human U138MG cells; format: functional
[9] = Antiproliferative activity against human U373 cells; format: functional, U-373MG ATCC; conditions: U373 MG
[10] = Half life in mouse; format: ADME, organism-based; conditions: in vivo
GL261 = test: Antitumor activity against mouse GL261 cells implanted in mouse assessed as incidence of long term survival (>100 days) at 30 mg/kg, po qd relative to control; format: functional
GL261 (Mus musculus) = test: Antiproliferative activity against mouse GL261 cells
Insulin receptor [11] = biological target: T2, Insulin receptor (Homo sapiens, UniProt P06213); test: Non-competitive inhibition of human placental insulin receptor expressed in CHO cell membrane assessed as decrease in insulin-stimulated A2 phosphorylation preincubated for 15 mins followed by substrate addition and measured after 15 mins in presence of [gamma-32P]ATP by Dixon plot analysis; format: cell-based
T2 sequence (P06213 28-758 limits assumed): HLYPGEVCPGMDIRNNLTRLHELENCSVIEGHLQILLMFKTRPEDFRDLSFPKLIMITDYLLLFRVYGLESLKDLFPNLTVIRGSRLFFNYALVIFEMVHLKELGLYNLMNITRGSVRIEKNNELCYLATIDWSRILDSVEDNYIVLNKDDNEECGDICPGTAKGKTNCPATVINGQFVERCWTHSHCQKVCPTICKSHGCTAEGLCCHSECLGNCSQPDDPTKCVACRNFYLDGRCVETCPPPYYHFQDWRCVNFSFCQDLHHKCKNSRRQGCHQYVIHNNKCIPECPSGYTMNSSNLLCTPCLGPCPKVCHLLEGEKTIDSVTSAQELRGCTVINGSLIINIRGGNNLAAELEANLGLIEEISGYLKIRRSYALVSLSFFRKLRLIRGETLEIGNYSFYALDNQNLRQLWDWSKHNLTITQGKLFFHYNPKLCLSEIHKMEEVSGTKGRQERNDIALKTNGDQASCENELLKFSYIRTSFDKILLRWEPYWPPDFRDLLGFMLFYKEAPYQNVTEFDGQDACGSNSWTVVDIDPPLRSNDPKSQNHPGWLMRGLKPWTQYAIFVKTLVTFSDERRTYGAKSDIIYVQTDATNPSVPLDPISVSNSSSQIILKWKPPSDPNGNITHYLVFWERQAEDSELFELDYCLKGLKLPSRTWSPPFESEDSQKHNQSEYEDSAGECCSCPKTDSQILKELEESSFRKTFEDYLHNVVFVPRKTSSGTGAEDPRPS
T2 sequence (P06213 763-1382 limits assumed): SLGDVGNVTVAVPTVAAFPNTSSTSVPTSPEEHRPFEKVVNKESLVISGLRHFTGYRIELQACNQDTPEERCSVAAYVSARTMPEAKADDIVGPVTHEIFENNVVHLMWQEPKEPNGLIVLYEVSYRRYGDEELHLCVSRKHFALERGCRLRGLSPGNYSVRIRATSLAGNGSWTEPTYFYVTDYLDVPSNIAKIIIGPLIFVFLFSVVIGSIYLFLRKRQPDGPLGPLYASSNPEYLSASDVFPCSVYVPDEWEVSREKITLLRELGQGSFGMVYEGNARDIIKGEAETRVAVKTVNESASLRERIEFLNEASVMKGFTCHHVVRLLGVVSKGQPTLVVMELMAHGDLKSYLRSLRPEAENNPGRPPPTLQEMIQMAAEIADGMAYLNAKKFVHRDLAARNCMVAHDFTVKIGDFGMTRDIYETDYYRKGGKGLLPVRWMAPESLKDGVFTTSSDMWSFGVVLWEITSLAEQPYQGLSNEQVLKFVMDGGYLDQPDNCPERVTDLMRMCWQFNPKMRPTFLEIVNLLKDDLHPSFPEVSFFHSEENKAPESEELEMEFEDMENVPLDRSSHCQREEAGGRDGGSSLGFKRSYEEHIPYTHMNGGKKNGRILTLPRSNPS

Insulin receptor [12] = biological target: T2, Insulin receptor; test: Inhibition of human placental insulin receptor expressed in CHO cells assessed as decrease in insulin-stimulated [3H]-2-deoxyglucose uptake preincubated for 1 hr; format: cell-based
[13] = biological target: T1, Proto-oncogene tyrosine-protein kinase Src; test: Inhibition of human recombinant pp60c-src expressed in baculovirus infected Sf9 insect cells using poly(Glu,Tyr) 4:1 as substrate after 15 mins
[14] = biological target: T1, Proto-oncogene tyrosine-protein kinase Src; test: Inhibition of human c-SRC expressed in mouse NIH/3T3 cells assessed as reduction in cell growth; format: cell-based
[15] = Inhibition of human c-SRC expressed in mouse NIH/3T3 cells assessed as reduction in BrdU incorporation after 24 hrs by ELISA

SMILES: O=C(Cc1ccc(-c2ccc(N3CCOCC3)cc2)cn1)NCc1cccc(F)c1 [KX2-361]
bioavailability [2]: 40%
Kp [5]: 1.16
bioavailability [6]: 40%
IC50 [7]: 60 nM
IC50 [8]: 67000 nM
GI50 (Daoy): 16 nM
GI50 (SK-N-MC): 8 nM
GI50 (SW1088): 26 nM
GI50 (LN-18): 2.9 nM
GI50 (SK-N-FI): 11 nM
GI50 (U-87 MG): 76 nM
GI50 (T98G): 14 nM
GI50 (U-118-MG): 29 nM
GI50 (U138-MG): 51 nM
GI50 [9]: 54 nM
half-life [10]: 2.5 h
Activity (GL261): 30%
GI50 (GL261 (Mus musculus)): 57 nM

SMILES: O=C(Cc1ccc(-c2ccccc2)cn1)NCc1cccc(F)c1
IC50 (HT-29 [1]): 338 nM
bioavailability [2]: 4%

SMILES: O=P(O)(O)C(O)c1ccc2ccccc2c1 (centres undefined)
Ki (Insulin receptor [11]): 95000 nM
IC50 (Insulin receptor [12]): 10000 nM

Second part, led by results:

IC50 (HT-29 [1]): 111 nM
bioavailability [2]: 64%
SMILES: O=C(Cc1ccc(-c2ccc(OCCN3CCOCC3)cc2)cn1)NCc1cccc(F)c1

GI50 (HT-29 [3]): 28 nM
SMILES: C#CCCCN(CCOc1ccc(-c2ccc(CC(=O)NCc3ccccc3)nc2)cc1)C(=O)c1ccc(C(=O)c2ccccc2)cc1
GI50 [4]: 45 nM

IC50 [13]: < 4 nM
GI50 [14]: 87 nM
IC50 [15]: 110 nM
SMILES: COc1cc2c(Nc3c(Cl)ccc4c3OCO4)ncnc2cc1OCCCN1CCCCC1
